{"source": "patent US9605064B2", "about": "“Methods and compositions for treatment of skin disorders” (AbbVie Biotechnology Ltd, priority 2006, dated 2017)", "format_in_all_cases": "in vivo, human", "key": {"[1]": {"system": "patients with chronic plaque psoriasis", "test": "PGA, 16-week open-label Phase IIIb trial after suboptimal response to ETN, MTX or NB-UVB", "conditions": "week 16", "text": "This 16-week, multicenter, open-label, Phase IIIb trial enrolled patients with chronic plaque psoriasis who were having a suboptimal response to ETN (Physician's Global Assessment [PGA]≧mild with months of therapy, or ≧3 months of therapy and deterioration of efficacy), MTX (PGA≧mild with ≧4 months of therapy), or narrow-band ultraviolet B (NB-UVB) phototherapy (PGA moderate with months of therapy). […] The primary endpoint was the proportion of patients who achieved PGA of clear or minimal at week 16. A secondary endpoint was the proportion achieving ≧1 grade of PGA improvement. Safety was assessed throughout the study. Efficacy analyses were intention to treat, with nonresponder imputation used for missing data. Efficacy and safety results were analyzed overall and for each prior-treatment group."}, "[2]": {"system": "patients with moderate to severe plaque psoriasis", "test": "PASI response and relapse, 12-week open-label weekly therapy then randomized eow or withdrawal"}, "[3]": {"system": "patients with moderate to severe psoriasis", "test": "PGA, open-label extension of REVEAL", "conditions": "for PGA “Clear” or “Minimal”: n = 233, ITT, LOCF", "protocol": "Laboratory parameters and adverse events were also recorded."}, "[4]": {"conditions": "Week 4, open-label 40 mg weekly, missing = non-responder"}, "[5]": {"conditions": "Week 8, open-label 40 mg weekly, missing = non-responder"}, "[6]": {"conditions": "Week 12, open-label 40 mg weekly, missing = non-responder"}, "[7]": {"conditions": "Week 24, randomized at Week 12 to 40 mg eow, missing = non-responder"}, "[8]": {"conditions": "open-label 40 mg weekly, Week 12"}}, "note": "Marks after values point to notes of the source that are not given here.", "data": [{"substance": "Adalimumab: a human anti-TNF mAb, described in U.S. Pat. No. 6,090,382 as D2E7 (HUMIRA, Abbott Laboratories)", "values": [{"measurement": "≧1 grade improvement in PGA", "setting": "[1]; all patients", "value": 75.0, "unit": "%"}, {"measurement": "PGA of clear or minimal", "setting": "[1]; prior ETN group", "value": 48.8, "unit": "%"}, {"measurement": "≧1 grade improvement in PGA", "setting": "[1]; prior ETN group", "value": 72.0, "unit": "%"}, {"measurement": "PGA of clear or minimal", "setting": "[1]; prior MTX group", "value": 61.0, "unit": "%"}, {"measurement": "≧1 grade improvement in PGA", "setting": "[1]; prior MTX group", "value": 78.0, "unit": "%"}, {"measurement": "PGA of clear or minimal", "setting": "[1]; prior NB-UVB group", "value": 48.3, "unit": "%"}, {"measurement": "≧1 grade improvement in PGA", "setting": "[1]; prior NB-UVB group", "value": 79.3, "unit": "%"}, {"measurement": "PASI50 response, Patients (%)", "setting": "[2]; [4]", "value": 59, "unit": "%"}, {"measurement": "PASI75 response, Patients (%)", "setting": "[2]; [4]", "value": 26, "unit": "%"}, {"measurement": "PASI90 response, Patients (%)", "setting": "[2]; [4]", "value": 9, "unit": "%"}, {"measurement": "PASI50 response, Patients (%)", "setting": "[2]; [5]", "value": 84, "unit": "%"}, {"measurement": "PASI75 response, Patients (%)", "setting": "[2]; [5]", "value": 55, "unit": "%"}, {"measurement": "PASI90 response, Patients (%)", "setting": "[2]; [5]", "value": 30, "unit": "%"}, {"measurement": "PASI50 response, Patients (%)", "setting": "[2]; [6]", "value": 92, "unit": "%"}, {"measurement": "PASI75 response, Patients (%)", "setting": "[2]; [6]", "value": 30, "unit": "%"}, {"measurement": "PASI90 response, Patients (%)", "setting": "[2]; [6]", "value": 47, "unit": "%"}, {"measurement": "PASI50, Patients (%)", "setting": "[2]; [7]", "value": 78, "unit": "%"}, {"measurement": "PASI75, Patients (%)", "setting": "[2]; [7]", "value": "68** %"}, {"measurement": "PASI90, Patients (%)", "setting": "[2]; [7]", "value": "47** %"}, {"measurement": "PASI 50 response rate", "setting": "[2]; open-label 40 mg weekly, Week 2", "value": 28, "unit": "%"}, {"measurement": "PASI 50 response rate", "setting": "[2]; [8]", "value": 92, "unit": "%"}, {"measurement": "PASI 75 response", "setting": "[2]; [8]", "value": 76.4, "unit": "%"}, {"measurement": "PASI 90 response", "setting": "[2]; [8]", "value": 47.3, "unit": "%"}, {"measurement": "patients who achieved ≧PASI 50 responses", "setting": "[2]; patients exposed to alefacept within the past year, Week 12", "value": "6/6"}, {"measurement": "patients who achieved ≧PASI 50 responses", "setting": "[2]; patients exposed to efalizumab within the past year, Week 12", "value": "14/15"}, {"measurement": "patients who achieved ≧PASI 50 responses", "setting": "[2]; patients exposed to etanercept within the past year, Week 12", "value": "12/14"}, {"measurement": "patients who achieved ≧PASI 50 responses", "setting": "[2]; patients exposed to infliximab within the past year, Week 12", "value": "4/4"}, {"measurement": "PGA scores of “clear” or “minimal", "setting": "[3]; OLE of REVEAL", "value": 74, "unit": "%"}, {"measurement": "PGA “Clear” or “Minimal”", "setting": "[3]; Week 0 of OLE", "value": 70, "unit": "%"}, {"measurement": "PGA “Clear” or “Minimal”", "setting": "[3]; Week 12 of OLE", "value": 71, "unit": "%"}, {"measurement": "PGA “Clear” or “Minimal”", "setting": "[3]; Week 24 of OLE", "value": 74, "unit": "%"}]}]}
